For series [1], the target named is T1, Melanin-concentrating hormone receptor 1 (Homo sapiens, UniProt Q99705). As to the kind of experiment: Inhibition of MCH-mediated calcium release in whole IMR32 cells by FLIPR. The series is classed as functional, cell-based, IMR-32.
The target of series [2] is Voltage-gated inwardly rectifying potassium channel KCNH2 (Homo sapiens, UniProt Q12809). As to the kind of experiment: Binding affinity to hERG stably transfected in HEK293 cells. The series is classed as cell-based. A general note: The hERG channel carries a current that helps repolarise heart muscle cells.
Series [3] concerns the target T1, Melanin-concentrating hormone receptor 1. Put plainly: Displacement of [125I]MCH from MCHr1 expressed in IMR32 cells. It counts as cell-based, IMR-32. (In general: Loss of bound radioactivity is the signal in a displacement assay; it reports binding, not function.)
Series [4] is described as follows: Brain to plasma AUC ratio in DIO mouse at 10 mg/kg. The series is classed as ADME, organism-based. Further details: dose 10 mg/kg. The following applies: read-out: Ratio AUC.
Series [5] is described as follows: Cmax in DIO mouse plasma at 10 mg/kg. Further details: dose 10 mg/kg. The series is classed as ADME, organism-based.
Series [6] can be described thus: AUC in DIO mouse plasma at 10 mg/kg. Further details: dose 10 mg/kg. The series is classed as ADME, organism-based.
Series [7] can be described thus: AUC in DIO mouse brain at 10 mg/kg. The series is classed as ADME, organism-based. Further details: dose 10 mg/kg.
Series [8] is described as follows: Plasma half life in DIO mouse at 10 mg/kg. The series is classed as ADME, organism-based. On the set-up: dose 10 mg/kg.
The nature of series [9]: Half life in DIO mouse brain at 10 mg/kg. The series is classed as ADME, organism-based. Further details: dose 10 mg/kg.
A short description of series [10]: Cmax in DIO mouse brain at 10 mg/kg. Further details: dose 10 mg/kg. The series is classed as ADME, organism-based.

Bounds are passed on as bounds.

In general, IC50 refers to the concentration that inhibits the measured activity by half. One may read the Ki as a dissociation constant, usually derived from enzyme kinetics or from competition with a known ligand. Usually Cmax stands for the highest concentration seen after dosing. The term AUC denotes concentration integrated over time. A low value points to less exposure. For orientation: half-life means the time in which the quantity being followed falls by half. Low values mean fast loss, high ones slow loss.

T1 sequence (Q99705 whole entry): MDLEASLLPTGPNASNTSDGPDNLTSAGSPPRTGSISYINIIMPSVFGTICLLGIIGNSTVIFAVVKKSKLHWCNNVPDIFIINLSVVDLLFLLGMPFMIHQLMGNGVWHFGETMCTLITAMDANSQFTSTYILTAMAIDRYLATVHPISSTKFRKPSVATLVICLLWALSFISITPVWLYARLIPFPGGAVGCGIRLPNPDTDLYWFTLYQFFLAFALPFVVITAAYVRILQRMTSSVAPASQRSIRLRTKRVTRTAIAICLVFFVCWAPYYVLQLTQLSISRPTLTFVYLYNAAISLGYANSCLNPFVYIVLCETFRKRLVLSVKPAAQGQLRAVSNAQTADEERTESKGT
Voltage-gated inwardly rectifying potassium channel KCNH2, sequence (Q12809 whole entry): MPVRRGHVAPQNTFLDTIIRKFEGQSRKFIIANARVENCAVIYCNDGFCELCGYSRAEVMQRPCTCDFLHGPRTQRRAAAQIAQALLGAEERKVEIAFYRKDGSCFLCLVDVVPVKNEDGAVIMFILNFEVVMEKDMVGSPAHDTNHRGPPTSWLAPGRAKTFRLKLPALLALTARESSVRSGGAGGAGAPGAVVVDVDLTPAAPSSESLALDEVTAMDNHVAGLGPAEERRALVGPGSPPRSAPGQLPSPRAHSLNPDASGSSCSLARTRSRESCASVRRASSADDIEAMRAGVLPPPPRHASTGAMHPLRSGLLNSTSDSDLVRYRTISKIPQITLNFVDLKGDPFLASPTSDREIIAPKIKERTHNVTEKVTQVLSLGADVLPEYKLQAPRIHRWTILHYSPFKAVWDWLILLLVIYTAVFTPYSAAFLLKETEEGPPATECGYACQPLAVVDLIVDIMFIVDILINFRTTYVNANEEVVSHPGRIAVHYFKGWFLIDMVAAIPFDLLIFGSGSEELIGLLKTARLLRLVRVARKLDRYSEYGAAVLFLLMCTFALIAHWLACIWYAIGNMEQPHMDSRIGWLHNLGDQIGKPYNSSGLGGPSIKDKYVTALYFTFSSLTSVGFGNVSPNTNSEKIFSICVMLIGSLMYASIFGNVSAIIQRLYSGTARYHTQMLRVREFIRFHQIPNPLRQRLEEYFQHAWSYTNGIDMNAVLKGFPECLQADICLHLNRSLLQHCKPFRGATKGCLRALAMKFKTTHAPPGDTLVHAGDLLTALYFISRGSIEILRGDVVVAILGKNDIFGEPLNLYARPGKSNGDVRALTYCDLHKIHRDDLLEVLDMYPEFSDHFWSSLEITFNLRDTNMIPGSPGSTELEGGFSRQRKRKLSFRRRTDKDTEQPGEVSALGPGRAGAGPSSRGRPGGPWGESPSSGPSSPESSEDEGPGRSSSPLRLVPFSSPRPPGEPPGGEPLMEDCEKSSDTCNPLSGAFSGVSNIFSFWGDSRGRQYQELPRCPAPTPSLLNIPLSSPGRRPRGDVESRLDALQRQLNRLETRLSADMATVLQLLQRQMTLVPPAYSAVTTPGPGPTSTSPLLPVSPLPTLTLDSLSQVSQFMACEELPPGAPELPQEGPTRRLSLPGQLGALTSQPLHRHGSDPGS

`O=c1nc(NC2CCN(Cc3ccc4ccccc4c3)CC2)c2cc(Cl)ccc2n1CC(F)(F)F`: the IC50 stood at 62 nM in [1] and 5 nM in series [3]. Moreover, in series [2], the inhibition constant (Ki) was 150 nM.
For the compound `O=c1nc(NC2CCN(Cc3ccc4c(c3)OCO4)CC2)c2cc(Cl)ccc2n1CC(F)(F)F`, the figures for the IC50 in series [1] and in [3] were 29 nM and 2 nM, respectively. For the same compound, the Ki in [2] was determined as 445 nM.
As to `O=c1nc(NC2CC3CCC(C2)N3Cc2ccc3c(c2)OCO3)c2cc(Cl)ccc2n1CC(F)(F)F` (stereo not drawn), the IC50 came to 31 nM in series [1] and 4 nM in series [3]. In [2], this compound registered a Ki of 120 nM.
On the same counts, the results for `COC(=O)c1c(NC2CCN(Cc3ccc4c(c3)OCO4)CC2)c2cc(Cl)ccc2n(C)c1=O` are 452 nM, 97 nM and 1440 nM.
For the compound `CCCCCn1c(=O)nc(NC2CCN(Cc3ccc4c(c3)OCO4)CC2)c2cc(Cl)ccc21`, the figures for the 50% inhibitory concentration (IC50) in [1] and in series [3] were 50 nM and 12 nM, respectively. For the same compound, the affinity in series [2] corresponds to a Ki of 135 nM.
On the same counts, the results for `Cn1c(=O)cc(NC2CCN(Cc3ccc4c(c3)OCO4)CC2)c2cc(OC(F)F)ccc21` are 34 nM, 5 nM and more than 2000 nM.
The corresponding values for `O=c1cc(NC2CCN(Cc3ccc4c(c3)OCO4)CC2)c2cc(Cl)ccc2n1Cc1ccccn1` are 20 nM, 1.2 nM and 550 nM.
As for `Cn1c(=O)cc(NC2CCN(Cc3ccc4ccccc4c3)CC2)c2cc(Cl)ccc21`, the IC50 in [1] was 100 nM; in series [3], 5 nM. This compound returned an inhibitory constant (Ki) in [2] of 215 nM.
As to `Cn1c(=O)c(C#N)c(NC2CCN(Cc3ccc4ccccc4c3)CC2)c2cc(Cl)ccc21`, the IC50 in [1] came out at 194 nM; in series [3], 12 nM. This compound also registered a Ki in series [2] of more than 2000 nM.
On the same counts, the results for `Cn1c(=O)nc(NC2CCN(Cc3ccc4ccccc4c3)CC2)c2cc(Cl)ccc21` are 72 nM, 7 nM and 160 nM.
Consider `COc1ccc2c(c1)c(NC1CCN(Cc3ccc4c(c3)OCO4)CC1)cc(=O)n2C`, for which the half-inhibitory concentration (IC50) in series [1] was 20 nM; in series [3], 3 nM. The compound also had an inhibitory constant (Ki) in series [2] of 778 nM.
For `Cn1c(=O)nc(NC2CCN(Cc3ccc4ncccc4c3)CC2)c2cc(Cl)ccc21`, the results for the half-inhibitory concentration (IC50) in series [1] and in series [3] were 66 nM and 12 nM, respectively.
Turning to `Cn1c(=O)nc(NC2CCN(Cc3ccc4c(c3)OCO4)CC2)c2cc(Cl)ccc21`, the Kp in [4] turned out to be 0.13. In addition, the 50% inhibitory concentration (IC50) in [1] stood at 62 nM; in [3] it was 5 nM. In addition, the results for the Cmax in series [5] and in [10] were 2200 ng/mL and 230 ng/mL, respectively. The AUC amounted to 5100 ng·h/mL in series [6] and 650 ng·h/mL in [7]. For the same compound, the half-life is 96 min in series [8] and 114 min in [9]. Besides, in series [2], the affinity, expressed as Ki, was 150 nM.
As for `O=c1cc(NC2CCN(Cc3ccc4c(c3)OCO4)CC2)c2cc(Cl)ccc2[nH]1`, the half-maximal inhibitory concentration (IC50) in series [1] was found to be 26 nM; in series [3], 4 nM.
As to `Cn1c(=O)c(C#N)c(NC2CCN(Cc3ccc4c(c3)OCO4)CC2)c2cc(Cl)ccc21`, in series [4], the Kp was 0.11. The results for the half-maximal inhibitory concentration (IC50) in series [1] and in [3] were 69 nM and 24 nM, respectively. Also, the maximum concentration (Cmax) is 1600 ng/mL in series [5] and 160 ng/mL in series [10]. In addition, the AUC in series [6] was 5900 ng·h/mL; in [7] it was 620 ng·h/mL. In addition, the half-life in series [8] was 114 min; in [9], 120 min.
Consider `O=c1cc(NC2CCN(Cc3ccc4c(c3)OCO4)CC2)c2cc(Cl)ccc2n1Cc1ccncc1`, for which, in series [4], the Kp turned out to be 0.29. The IC50 in [1] was 29 nM; in series [3], 1.1 nM. Further, the highest concentration (Cmax) was 680 ng/mL in series [5] and 200 ng/mL in series [10]. Besides, the AUC in [6] was found to be 2100 ng·h/mL; in [7], 730 ng·h/mL. Moreover, the half-life in series [8] was 138 min; in series [9], 150 min. In series [2], this compound registered an inhibitory constant (Ki) of 355 nM.
In the case of `Cn1c(=O)cc(NC2CCN(Cc3ccc4c(c3)OCO4)CC2)c2cc(OC(F)(F)F)ccc21`, the half-inhibitory concentration (IC50) amounted to 104 nM in [1] and 34 nM in series [3]. The compound also came in with an inhibitory constant (Ki) in series [2] of 1800 nM.
`O=c1cc(NC2CCN(Cc3ccc4ccccc4c3)CC2)c2cc(Cl)ccc2n1Cc1ccccn1`: the values for the IC50 in series [1] and in series [3] were 55 nM and 0.9 nM, respectively. This compound also yielded a Ki in series [2] of 88 nM.
On the same counts, the results for `Cn1c(=O)cc(NC2CCN(C/C=C/c3ccccc3)CC2)c2cc(Cl)ccc21` are 88 nM, 10 nM and 30 nM.
For `Cn1c(=O)c(C(=O)N2CCCC2)c(NC2CCN(Cc3ccc4c(c3)OCO4)CC2)c2cc(Cl)ccc21`, the half-inhibitory concentration (IC50) in series [1] was 53 nM; in [3], 16 nM. For the same compound, the inhibition constant Ki in series [2] is more than 2000 nM.
On the same counts, the results for `N#Cc1c(NC2CCN(Cc3ccc4c(c3)OCO4)CC2)c2cc(Cl)ccc2[nH]c1=O` are 20 nM, 15 nM and 420 nM.
Turning to `O=c1cc(NC2CCN(Cc3ccc4c(c3)OCO4)CC2)c2cc(Cl)ccc2n1Cc1ccccc1`, the figures for the 50% inhibitory concentration (IC50) in series [1] and in series [3] were 42 nM and 0.8 nM, respectively. Also, in [2], the Ki was 280 nM.
On to `Cn1c(=O)nc(NC2CC3CCC(C2)N3Cc2ccc3c(c2)OCO3)c2cc(Cl)ccc21` (stereo in doubt; 4g), for which the results for the half-inhibitory concentration (IC50) in [1] and in series [3] were 53 nM and 9 nM, respectively.
With `Cn1c(=O)nc(NC2CC3CCC(C2)N3Cc2ccc3c(c2)OCO3)c2cc(Cl)ccc21` (stereo in doubt; 4i), the 50% inhibitory concentration (IC50) in [1] was 136 nM; in series [3], 68 nM.

The values above are taken from ChEMBL document CHEMBL1147687, “Identification and characterization of amino-piperidinequinolones and quinazolinones as MCHr1 antagonists” (Bioorg Med Chem Lett, 2006).
